# Assay results from ChEMBL document CHEMBL1201862, “PubChem BioAssay data set” (2004).
# Calls of active or inactive are those of the source.
# What was measured:
# Streptokinase A = target: T1, Streptokinase A (Streptococcus pyogenes serotype M1, UniProt P10520); assay: viability-normalized secreted streptokinase activity reduction – plasminogen activation absorbance, OD405, dose response (AID 1914); format: functional, Streptococcus pyogenes M1 GAS;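 also: secreted streptokinase activity via plasminogen activation per viability signal from cell pellet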
# T1 sequence (P10520 whole entry): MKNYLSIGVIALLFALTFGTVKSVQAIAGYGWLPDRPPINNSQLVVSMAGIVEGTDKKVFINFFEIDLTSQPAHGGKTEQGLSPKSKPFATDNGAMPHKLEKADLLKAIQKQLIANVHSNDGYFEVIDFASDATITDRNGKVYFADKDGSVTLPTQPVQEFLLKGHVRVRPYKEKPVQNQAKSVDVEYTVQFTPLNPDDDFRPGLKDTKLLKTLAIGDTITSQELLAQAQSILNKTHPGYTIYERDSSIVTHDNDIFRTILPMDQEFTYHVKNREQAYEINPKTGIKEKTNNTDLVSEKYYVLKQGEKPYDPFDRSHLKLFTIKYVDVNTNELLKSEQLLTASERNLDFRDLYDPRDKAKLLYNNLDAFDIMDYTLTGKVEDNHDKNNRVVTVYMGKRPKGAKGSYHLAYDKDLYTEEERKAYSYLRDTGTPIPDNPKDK
# Mucolipin-3 = target: T2, Mucolipin-3 (Homo sapiens, UniProt Q8TDD5); assay: Dose response cell-based high-throughput screening assay for agonists of the transient receptor potential channel ML3 (TRPML3). [Related pubchem assays: 1526, 1424, 1448 ]; format: functional
# T2 sequence (Q8TDD5 whole entry): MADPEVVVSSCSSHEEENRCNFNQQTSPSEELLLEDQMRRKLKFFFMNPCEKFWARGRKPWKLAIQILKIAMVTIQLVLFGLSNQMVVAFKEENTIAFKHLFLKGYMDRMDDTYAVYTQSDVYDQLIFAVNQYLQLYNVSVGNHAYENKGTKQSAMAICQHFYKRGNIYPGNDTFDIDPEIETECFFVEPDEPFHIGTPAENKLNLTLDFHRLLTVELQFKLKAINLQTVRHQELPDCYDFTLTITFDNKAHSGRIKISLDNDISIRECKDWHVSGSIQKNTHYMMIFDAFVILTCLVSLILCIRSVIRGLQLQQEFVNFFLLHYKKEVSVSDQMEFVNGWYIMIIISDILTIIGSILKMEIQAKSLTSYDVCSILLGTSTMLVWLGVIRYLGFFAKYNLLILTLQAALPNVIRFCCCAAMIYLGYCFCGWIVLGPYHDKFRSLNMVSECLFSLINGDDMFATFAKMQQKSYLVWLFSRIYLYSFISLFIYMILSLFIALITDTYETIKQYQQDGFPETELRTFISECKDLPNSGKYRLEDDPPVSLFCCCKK
# Ion channel NompC = Ion channel NompC (Danio rerio, UniProt Q7T1G6); assay: Fluorescence counterscreen assay for TRPML3 agonists: dose response cell-based high-throughput screening assay to identify agonists of the transient receptor potential channel N1 (TRPN1). [Related pubchem assays: 1526, 1424, 1448 ]; format: functional
# Streptococcus = assay: GAS UMAA2166 growth inhibition – luminescence, BacTiterGlo, counter-screen for streptokinase expression inhibitor project, dose response (AID 1915); format: functional, organism-based;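 also: potency for reduction of bacterial viability or growth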
# [1] = system: Streptococcus sp. 'group A'; assay: Streptococcus pyogenes SK(-)GAS viability under kanamycin – luminescence, BacTiterGlo, confirmation, counter-screen for streptokinase expression inhibitor project, dose response (AID 1900); format: functional, organism-based
# SUMO-activating enzyme [2] = target: T3, SUMO-activating enzyme (Homo sapiens, UniProt Q9UBT2); assay: blockers of UBC9-mediated SUMO conjugation – biochemical, AlphaScreen, SUMOylation inhibitor project, confirmation (AID 2018); format: functional
# [3] = target: T4, Calpain-2 catalytic subunit (Sus scrofa, UniProt P43367); assay: m-calpain protease blockers, concentration series – biochemical, fluorogenic peptide substrate, dose response (AID 1420); format: functional
# T4 sequence (P43367 whole entry): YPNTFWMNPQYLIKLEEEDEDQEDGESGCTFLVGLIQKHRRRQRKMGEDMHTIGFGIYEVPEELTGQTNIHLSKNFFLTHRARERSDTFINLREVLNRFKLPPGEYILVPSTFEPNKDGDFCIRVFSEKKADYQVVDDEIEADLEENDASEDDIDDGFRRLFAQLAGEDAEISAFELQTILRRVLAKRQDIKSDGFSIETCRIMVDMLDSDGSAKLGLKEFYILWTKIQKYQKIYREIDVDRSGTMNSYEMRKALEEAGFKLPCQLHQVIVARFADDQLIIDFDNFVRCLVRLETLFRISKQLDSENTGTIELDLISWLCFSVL
# [4] = target: Dual specificity tyrosine-phosphorylation-regulated kinase 1A (Rattus norvegicus, UniProt Q63470); format: biochemical, Homo sapiens
# SUMO-activating enzyme [5] = target: T3, SUMO-activating enzyme; assay: blockers of SAE1/SAE2–UBC9 SUMO transfer – biochemical, HTRF, uHTS, primary screen (AID 2006); format: protein-complex assay
# [6] = target: Intestinal-type alkaline phosphatase (Homo sapiens, UniProt P09923); assay: Dose Response confirmation of uHTS hits from a small molecule inhibitors of human intestinal alkaline phosphatase via a luminescent assay. [Related pubchem assays (depositor defined):AID2544, AID2574]; format: functional
# [7] = target: T5, Heat shock 70 kDa protein 1A (Homo sapiens, UniProt P0DMV8); assay: small-molecule inhibition of Hsp70 – biochemical, TR-FRET (AID 786)
# [8] = target: T5, Heat shock 70 kDa protein 1A; assay: small molecules displacing fluorescent ligand from Hsp70 – biochemical, fluorescence polarization, primary screen (AID 583)
# [9] = target: ATP-dependent molecular chaperone HSP82 (Candida albicans (strain WO-1) (Yeast), UniProt C4YTQ8); assay: steroid-induced GRE reporter decrease in yeast – S. cerevisiae, luminescence, Hsp90 inhibitor project, dose response (AID 2400); format: functional, cell-based;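 also: beta-galactosidase luminescence from glucocorticoid response element reporter as proxy for Hsp90 function; inhibitor potency where signal loss means Hsp90 inhibition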
# [10] = fluconazole-exposed Candida albicans growth modulators – fluorescence, retest, confirmation (AID 2467); format: functional, cell-based
# [11] = target: T6, Long-chain-fatty-acid--AMP ligase FadD28 (Mycobacterium tuberculosis, UniProt P9WQ59); assay: Fluorescence polarization aasay to screen for inhibitors that compete for the binding of FadD28 to a bisubstrate Measured in Biochemical System Using Plate Reader - 2147-01_Inhibitor_Dose_CherryPick_Activity.; format: functional, Mycobacterium tuberculosis H37Rv
# T6 sequence (P9WQ59 whole entry): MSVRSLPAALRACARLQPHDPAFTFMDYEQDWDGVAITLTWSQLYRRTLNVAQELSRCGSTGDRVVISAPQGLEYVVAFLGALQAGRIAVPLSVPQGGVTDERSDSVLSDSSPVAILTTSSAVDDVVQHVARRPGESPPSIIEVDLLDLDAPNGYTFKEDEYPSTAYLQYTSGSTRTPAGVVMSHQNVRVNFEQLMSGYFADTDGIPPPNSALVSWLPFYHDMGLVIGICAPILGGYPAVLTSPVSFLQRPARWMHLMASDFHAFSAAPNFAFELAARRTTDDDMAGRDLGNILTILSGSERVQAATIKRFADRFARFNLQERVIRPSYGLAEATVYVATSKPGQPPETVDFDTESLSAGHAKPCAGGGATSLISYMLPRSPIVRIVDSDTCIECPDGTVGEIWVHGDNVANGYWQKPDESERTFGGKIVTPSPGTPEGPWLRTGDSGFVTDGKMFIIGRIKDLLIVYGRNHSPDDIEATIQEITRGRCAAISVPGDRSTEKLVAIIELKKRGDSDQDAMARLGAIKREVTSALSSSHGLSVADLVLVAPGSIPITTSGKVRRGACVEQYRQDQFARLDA
# [12] = target: T7, Serine/threonine-protein phosphatase (Candida dubliniensis (strain CD36 / CBS 7987 / NCPF 3949 / NRRLY-17841) (Yeast), UniProt B9W6M3); assay: blockers of CaCl2-induced CDRE-lacZ signaling – S. cerevisiae, luminescence, secondary, dose response (AID 2388); format: functional, cell-based;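 also: yeast reporter cells carrying a calcineurin-responsive lacZ construct stimulated with calcium chloride; luminescent beta-galactosidase reporter signal in whole cells rather than isolated phosphatase activity; potency for inhibition where a drop in reporter signal means calcineurin blockade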
# T7 sequence (B9W6M3 whole entry): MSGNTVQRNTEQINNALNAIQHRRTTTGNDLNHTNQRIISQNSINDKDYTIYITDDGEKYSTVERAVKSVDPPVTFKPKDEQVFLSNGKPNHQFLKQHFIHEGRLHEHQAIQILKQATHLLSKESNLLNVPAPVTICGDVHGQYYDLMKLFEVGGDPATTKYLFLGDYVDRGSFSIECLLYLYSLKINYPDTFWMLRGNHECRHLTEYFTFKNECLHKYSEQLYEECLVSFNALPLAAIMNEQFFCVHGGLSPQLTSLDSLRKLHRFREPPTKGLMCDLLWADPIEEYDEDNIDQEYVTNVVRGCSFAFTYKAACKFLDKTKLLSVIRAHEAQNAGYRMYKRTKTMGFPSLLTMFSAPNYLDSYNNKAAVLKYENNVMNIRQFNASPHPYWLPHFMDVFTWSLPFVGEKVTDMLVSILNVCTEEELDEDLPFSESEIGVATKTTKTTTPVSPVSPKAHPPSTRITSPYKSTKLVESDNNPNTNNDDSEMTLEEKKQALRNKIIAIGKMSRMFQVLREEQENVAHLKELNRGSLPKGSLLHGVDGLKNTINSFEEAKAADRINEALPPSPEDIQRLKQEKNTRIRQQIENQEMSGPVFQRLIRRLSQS
# [13] = target: Peroxisome proliferator-activated receptor gamma/Nuclear receptor coactivator 2 (Homo sapiens, UniProt P37231); assay: (§1) TR-FRET dose response biochemical High Throughput Screening assay for agonists of the steroid receptor coactivator 2 (SRC-2) recruitment by the peroxisome proliferator-activated receptor gamma (PPAR gamma): non-selective agonists. [Related pubchem assays: 1297, 1032 ]; format: functional
# fMet-Leu-Phe receptor = target: T8, fMet-Leu-Phe receptor (Homo sapiens, UniProt P21462); assay: formyl peptide receptor binders – dose response (AID 519); format: functional
# T8 sequence (P21462 whole entry): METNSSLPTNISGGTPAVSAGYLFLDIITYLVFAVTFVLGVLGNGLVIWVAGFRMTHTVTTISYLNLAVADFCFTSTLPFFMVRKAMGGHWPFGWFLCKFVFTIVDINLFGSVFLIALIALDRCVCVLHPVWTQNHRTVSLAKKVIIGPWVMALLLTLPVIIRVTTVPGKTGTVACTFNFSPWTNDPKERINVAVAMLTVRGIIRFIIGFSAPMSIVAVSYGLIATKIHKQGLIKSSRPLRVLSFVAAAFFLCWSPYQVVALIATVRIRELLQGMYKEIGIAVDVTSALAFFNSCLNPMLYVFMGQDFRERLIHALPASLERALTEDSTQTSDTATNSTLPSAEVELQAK
# [14] = target: Peroxisome proliferator-activated receptor gamma/Nuclear receptor coactivator 3 (Homo sapiens, UniProt P37231); assay: as §1, with “3 (SRC-3)” for “2 (SRC-2)”, “1301 (Confirmation screen.), 1048 (Primary screen.)]” for “1297, 1032 ]”; format: functional
# [15] = target: Peroxisome proliferator-activated receptor gamma/Nuclear receptor coactivator 1 (Homo sapiens, UniProt P37231); assay: as §1, with “1 (SRC-1)” for “2 (SRC-2)”, “assays (depositor defined):AID1300, AID1808, AID504735, AID631]” for “assays: 1297, 1032 ]”; format: protein assay
# NS3 = NS3 (Hepatitis C virus, UniProt A3EZJ3); assay: PubChem AID 2173; set-up: species or system Hepacivirus hominis
# [16] = NIH-3T3 fibroblast cytotoxicity, dose response, cytotoxicity control, cell-based, fluorescence, Alamar Blue, secondary assay (AID 2327); format: functional;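 also: NIH-3T3 mouse fibroblasts cultured with fluconazole at 8 µg/mL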
# T5 sequence (P0DMV8 whole entry): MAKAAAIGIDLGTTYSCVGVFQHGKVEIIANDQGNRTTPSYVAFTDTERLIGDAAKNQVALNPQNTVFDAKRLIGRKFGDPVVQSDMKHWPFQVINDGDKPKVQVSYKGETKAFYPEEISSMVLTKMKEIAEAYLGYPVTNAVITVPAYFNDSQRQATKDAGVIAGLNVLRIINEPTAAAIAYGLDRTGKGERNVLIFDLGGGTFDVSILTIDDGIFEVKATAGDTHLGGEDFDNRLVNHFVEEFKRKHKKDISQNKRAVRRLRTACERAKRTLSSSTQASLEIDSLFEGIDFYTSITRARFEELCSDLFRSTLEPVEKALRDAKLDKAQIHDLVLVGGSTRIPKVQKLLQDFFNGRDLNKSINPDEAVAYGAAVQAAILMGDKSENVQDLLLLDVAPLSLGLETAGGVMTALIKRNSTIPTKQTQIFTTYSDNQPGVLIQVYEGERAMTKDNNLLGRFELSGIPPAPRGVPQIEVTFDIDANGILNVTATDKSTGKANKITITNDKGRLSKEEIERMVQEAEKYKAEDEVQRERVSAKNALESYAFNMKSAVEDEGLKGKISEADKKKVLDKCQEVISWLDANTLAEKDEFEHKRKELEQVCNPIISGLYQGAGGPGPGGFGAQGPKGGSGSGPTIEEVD
# T3 sequence (Q9UBE0 whole entry): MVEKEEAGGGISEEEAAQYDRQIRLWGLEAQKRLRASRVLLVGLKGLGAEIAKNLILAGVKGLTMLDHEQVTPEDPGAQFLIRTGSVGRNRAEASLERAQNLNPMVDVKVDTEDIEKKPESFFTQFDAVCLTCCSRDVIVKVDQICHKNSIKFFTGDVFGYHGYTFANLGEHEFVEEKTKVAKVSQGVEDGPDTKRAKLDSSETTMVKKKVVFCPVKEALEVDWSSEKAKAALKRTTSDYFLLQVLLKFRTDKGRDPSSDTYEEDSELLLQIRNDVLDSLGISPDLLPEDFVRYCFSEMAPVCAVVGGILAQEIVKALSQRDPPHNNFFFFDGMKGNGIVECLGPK
# T3 sequence (Q9UBT2 whole entry): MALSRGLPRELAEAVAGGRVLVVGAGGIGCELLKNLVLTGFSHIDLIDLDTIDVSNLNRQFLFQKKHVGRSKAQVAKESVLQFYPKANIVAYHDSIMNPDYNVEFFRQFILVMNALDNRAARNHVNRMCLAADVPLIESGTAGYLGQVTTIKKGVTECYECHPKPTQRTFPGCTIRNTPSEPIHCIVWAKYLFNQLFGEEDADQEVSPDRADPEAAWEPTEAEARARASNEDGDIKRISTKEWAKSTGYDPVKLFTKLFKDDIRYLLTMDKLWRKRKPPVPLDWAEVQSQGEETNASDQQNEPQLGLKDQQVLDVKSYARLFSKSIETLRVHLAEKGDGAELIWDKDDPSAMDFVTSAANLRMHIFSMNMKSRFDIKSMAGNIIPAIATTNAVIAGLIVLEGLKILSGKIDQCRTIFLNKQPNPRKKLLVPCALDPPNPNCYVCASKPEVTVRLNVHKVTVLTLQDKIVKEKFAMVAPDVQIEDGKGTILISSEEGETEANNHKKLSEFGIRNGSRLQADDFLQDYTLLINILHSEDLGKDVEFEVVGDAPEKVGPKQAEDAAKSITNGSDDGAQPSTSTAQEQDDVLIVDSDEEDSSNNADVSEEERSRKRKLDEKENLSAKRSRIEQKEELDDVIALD
# Chain of ATP-dependent molecular chaperone HSP82 (C4YTQ8 whole entry): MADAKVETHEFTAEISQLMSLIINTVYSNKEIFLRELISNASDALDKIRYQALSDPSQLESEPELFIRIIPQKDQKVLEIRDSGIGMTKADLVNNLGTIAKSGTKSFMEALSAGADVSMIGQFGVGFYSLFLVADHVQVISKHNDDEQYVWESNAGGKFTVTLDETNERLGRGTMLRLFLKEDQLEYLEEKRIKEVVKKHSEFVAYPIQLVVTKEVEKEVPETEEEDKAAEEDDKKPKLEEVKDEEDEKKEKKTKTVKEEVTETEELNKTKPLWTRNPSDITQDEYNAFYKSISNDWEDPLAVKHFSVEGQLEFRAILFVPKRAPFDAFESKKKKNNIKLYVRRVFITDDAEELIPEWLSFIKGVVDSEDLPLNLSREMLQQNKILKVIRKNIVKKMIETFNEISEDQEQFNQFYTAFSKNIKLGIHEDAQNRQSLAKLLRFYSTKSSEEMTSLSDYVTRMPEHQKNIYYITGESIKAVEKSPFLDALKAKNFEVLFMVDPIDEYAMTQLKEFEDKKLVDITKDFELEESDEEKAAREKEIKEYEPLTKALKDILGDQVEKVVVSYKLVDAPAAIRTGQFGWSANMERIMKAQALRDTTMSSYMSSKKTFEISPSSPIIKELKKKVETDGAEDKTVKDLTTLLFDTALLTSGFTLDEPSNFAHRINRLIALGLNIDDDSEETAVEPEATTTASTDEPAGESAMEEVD
# Chain of Ion channel NompC (Q7T1G6 whole entry): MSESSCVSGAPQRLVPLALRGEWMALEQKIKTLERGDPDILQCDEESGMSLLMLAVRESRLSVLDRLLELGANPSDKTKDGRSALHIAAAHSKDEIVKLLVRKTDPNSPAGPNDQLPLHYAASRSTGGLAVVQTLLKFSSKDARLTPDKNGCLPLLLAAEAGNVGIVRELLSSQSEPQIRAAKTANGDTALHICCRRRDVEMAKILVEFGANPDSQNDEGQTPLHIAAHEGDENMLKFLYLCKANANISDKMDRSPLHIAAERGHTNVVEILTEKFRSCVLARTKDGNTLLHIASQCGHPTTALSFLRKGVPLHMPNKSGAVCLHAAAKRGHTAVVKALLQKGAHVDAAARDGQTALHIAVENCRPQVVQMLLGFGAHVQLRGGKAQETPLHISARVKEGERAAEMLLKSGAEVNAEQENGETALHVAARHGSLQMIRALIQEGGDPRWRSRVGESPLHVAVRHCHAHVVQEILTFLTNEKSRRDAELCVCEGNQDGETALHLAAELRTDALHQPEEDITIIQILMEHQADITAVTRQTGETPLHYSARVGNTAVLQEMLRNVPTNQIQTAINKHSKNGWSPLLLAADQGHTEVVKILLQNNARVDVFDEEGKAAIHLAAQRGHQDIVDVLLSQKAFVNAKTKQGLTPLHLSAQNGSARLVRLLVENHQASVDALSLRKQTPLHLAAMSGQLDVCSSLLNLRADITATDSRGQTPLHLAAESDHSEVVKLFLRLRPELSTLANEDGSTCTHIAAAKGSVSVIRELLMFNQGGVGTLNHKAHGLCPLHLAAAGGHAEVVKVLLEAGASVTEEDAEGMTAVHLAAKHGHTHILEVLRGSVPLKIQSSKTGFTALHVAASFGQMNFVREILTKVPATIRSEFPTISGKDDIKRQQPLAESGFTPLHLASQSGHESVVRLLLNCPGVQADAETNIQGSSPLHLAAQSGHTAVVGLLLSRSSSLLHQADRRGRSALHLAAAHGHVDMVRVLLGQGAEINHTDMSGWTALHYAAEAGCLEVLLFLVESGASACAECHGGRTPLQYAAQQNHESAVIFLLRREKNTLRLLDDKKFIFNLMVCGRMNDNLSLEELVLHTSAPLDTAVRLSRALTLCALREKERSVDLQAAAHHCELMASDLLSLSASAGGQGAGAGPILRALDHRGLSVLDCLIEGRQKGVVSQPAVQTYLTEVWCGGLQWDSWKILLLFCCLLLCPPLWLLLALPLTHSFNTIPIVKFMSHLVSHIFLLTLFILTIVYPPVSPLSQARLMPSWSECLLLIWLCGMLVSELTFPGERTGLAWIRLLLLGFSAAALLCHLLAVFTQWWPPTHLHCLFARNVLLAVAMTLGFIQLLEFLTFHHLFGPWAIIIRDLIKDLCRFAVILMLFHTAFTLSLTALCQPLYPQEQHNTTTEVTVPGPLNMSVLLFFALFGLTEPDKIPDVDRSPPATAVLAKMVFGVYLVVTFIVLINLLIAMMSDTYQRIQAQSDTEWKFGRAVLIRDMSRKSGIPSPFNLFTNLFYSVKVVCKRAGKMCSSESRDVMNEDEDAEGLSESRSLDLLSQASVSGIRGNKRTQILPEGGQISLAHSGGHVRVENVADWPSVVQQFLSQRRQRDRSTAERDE
# Chain of Intestinal-type alkaline phosphatase (P09923 whole entry): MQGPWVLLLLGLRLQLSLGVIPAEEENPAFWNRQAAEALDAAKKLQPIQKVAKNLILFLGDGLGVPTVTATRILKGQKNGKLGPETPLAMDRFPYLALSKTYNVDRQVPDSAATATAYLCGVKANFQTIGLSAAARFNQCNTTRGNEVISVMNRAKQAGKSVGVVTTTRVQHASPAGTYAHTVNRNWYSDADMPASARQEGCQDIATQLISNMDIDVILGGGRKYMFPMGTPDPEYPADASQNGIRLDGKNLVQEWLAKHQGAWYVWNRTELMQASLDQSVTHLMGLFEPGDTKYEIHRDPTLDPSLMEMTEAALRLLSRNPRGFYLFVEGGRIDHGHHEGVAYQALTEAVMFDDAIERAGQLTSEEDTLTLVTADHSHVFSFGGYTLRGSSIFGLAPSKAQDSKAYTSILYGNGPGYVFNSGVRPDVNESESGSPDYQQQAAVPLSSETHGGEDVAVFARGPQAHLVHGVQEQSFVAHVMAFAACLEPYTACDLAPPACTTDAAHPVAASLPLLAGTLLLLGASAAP
structure (smiles),measurement,setting,value
Cc1cc(C)n(-c2nc(C)nc(NCc3ccccc3)n2)n1,EC50,Streptokinase A,> 150 µM (not active)
same,EC50,Mucolipin-3,> 29.9 µM (not active)
same,EC50,Ion channel NompC,> 29.9 µM (not active)
same,EC50,Streptococcus,> 150 µM (not active)
same,EC50,[1],42.4 µM (active)
O=C(Nc1ccc(F)cc1)C(=O)c1c(O)[nH]c2ccc([N+](=O)[O-])cc12,IC50,SUMO-activating enzyme [2],9.48 µM (active)
same,IC50,[3],> 50 µM (not active)
same,AC50,[4],10.4 µM (active)
same,IC50,SUMO-activating enzyme [5],24 µM (active)
NC(=O)c1ccc(NC(=O)C2CCCC2)cc1,IC50,[6],> 100 µM (inactive)
CCOc1ccccc1N1Cc2cc(C)c(C)cc2C1,IC50,[7],> 100 µM (not active)
same,IC50,[8],> 100 µM (not active)
COc1ccc(OC)c(C2C(C(=O)c3cc4ccccc4o3)=C(O)C(=O)N2c2cc(C)on2)c1 (configuration not stated),EC50,[9],21.6 µM (active)
same,EC50,[10],0.046 µM (active)
same,AC50,[11],> 100 µM (inactive)
same,EC50,[12],> 180 µM (inactive)
same,EC50,[13],36 µM (not active)
same,Ki,fMet-Leu-Phe receptor,36.6 µM (inactive)
same,EC50,[14],> 79.4 µM (not active)
same,EC50,[15],> 79.4 µM (inactive)
same,IC50,NS3,5.29 µM (active)
same,EC50,[16],> 150 µM (inactive)
